Source: patent US5389621A, “Method of enhancing the anticoagulant effects of aspirin using salicylamide” (University of Medicine and Dentistry of New Jersey, priority 1994, dated 1995)
Entries after “also recorded” stand apart in the source; their conditions may differ. Where two headings read alike, the source gives them in different places.

Tests used:
[1] = Excretion study: effect of salicylamide on aspirin excretion; settings: for Rate order of excretion of metabolites: first 24 hours, urine
Description: (§1) Male adult Sprague-Dawley rats (300-325 gm) obtained from Charles River Breeding Laboratory, N. Wilmington, Mass. were quarantined for one week. All animals were identified by ear punching. Food and water were provided ad libitum. The animals were maintained on rodent lab chow diet in a controlled environment with 50% humidity and 12 hour light/dark cycle.
The dose of radiolabeled ASA administered was 5 μCi per rat. Rats were fasted overnight prior to the administration of the treatments.
Rats were gavaged with the treatment solution and were immediately placed in Silverman metabolic glass chambers (Bioserv, Inc., Frenchtown, N.J.), one rat per chamber. Rats were administered water ad libitum while food was withheld until 1.5 hours following treatment administration. Urine was collected at 8, 16, 24, 48 and 72 hours. Feces were collected in preweighed clean plastic cups at 24, 48 and 72 hours after dosing. The expired air was channeled through a series of activated charcoal tubes to trap any radiolabeled compound that is excreted via the lungs and the tubes were collected at the end of the study 72 hours after dosing.
The urine samples were collected and the volume was measured using a 10 ml graduated glass pipette. The urine was shaken, and 100 μl of each urine sample were pipetted in a scintillation vial with 15 ml of Aquasol-2 for radioactivity assessment. The rest of the urine was stored at -70° C. for later analysis of its content of salicylic acid (SA) and salicyluric acid (SUA), the major metabolites of ASA.
Fecal weight was determined for each time-point collection and deionized water was added to feces in a ratio of feces:water, 1:3 (w/w).
The activated charcoal was carefully emptied in small glass tubes and extracted with 1 ml of methanol and the tubes were then centrifuged at 1800×g for 15 minutes.
Urine was further studied for its content of the ASA metabolites, namely SA and SUA. Waters HPLC system (Waters Chromatography, Division of Millipore, Milford, Mass.) with 3.9 mm×15 cm NOVA-PAK 4 μm silica packing steel column, C-18 Guard-Pak, and Milli-Q(tm) Millipore water filtration system were used for the characterization of SA and SUA. An isocratic methodology was developed and the separation was optimal by a mobile phase of 2% acetic acid/methanol, 70:30, at a flow rate of 1 ml/min. and a detection wavelength of 240 nm. One hundred μl of the collected 8 and 16 hour urine samples were diluted with 4 ml of methanol/mobile phase mixture (1:1) while the dilution was only with 2 ml for the 24, 48 and 72 hour urine samples.
The fractions under the specific retentiontimes of SA and SUA were collected in scintillation vials containing 15 ml of the scintillation cocktail and the radioactivity content was counted. The retention times of SA and SUA were determined by injection of authentic standard solution. Corrections have been made for the quenching effect of the mobile phase.
Student-t test and one way analysis of variance (ANOVA) followed by Scheffe multiple range test were used where appropriate. The accepted level of significance of difference was p<0.05.

[2] = Tissue distribution of aspirin and its metabolites (SA, SUA, GA, DBA) by HPLC after 14C-aspirin; settings: for Aspirin level in tissues studied (plasma, lung, liver, heart, kidney): 1.5 hours after 14C-ASA alone or with SAM, low and high doses
Description: as §1
Forty-eight rats were divided into two groups. The first group of rats was administered ASA, SAM or their combination in a dose approximately equal (w/w) to that in the commercially available combinations, e.g., BC® formula, when administered to humans, i.e., 10 and 3 mg/kg of ASA and SAM, respectively. The second group was administered double the dosage received by the first group.
The rats were anesthetized by light diethyl ether inhalation. A blood sample of nearly 3 ml was collected by cardiac puncture 1.5 hours after oral administration. The blood was transferred to chilled polyethylene tubes containing 30 μl of 50% (w/w) potassium fluoride to prevent hydrolysis of ASA. A 300 μl aliquot was pipetted in a scintillation vial to study the distribution in whole blood. The rest of the collected blood was immediately centrifuged at 1800×g for 10 minutes at 4° C. and the plasma was decanted. 100 μl of the plasma were pipetted in a scintillation vial for measurement of the total radioactivity and the rest of the plasma was stored immediately at -70° C. for later study of the distribution of the metabolites.
Liver, kidney, plasma, lung and heart were stored at -70° C. for later study of their content of the metabolites of aspirin or salicylamide using an HPLC method. Liver, kidney and plasma of the rats treated with aspirin or the combination were also investigated for the presence of salicyl glucuronide conjugates by using HPLC and acid hydrolysis assays.
A Waters HPLC system (Waters Chromatography, Division of Millipore, Milford, Mass.) was used, consisting of: Waters 680 automated gradient controller, two model 510 pumps, model U6K universal liquid chromatography injector, Lambda Max model 481 variable wavelength UV/Vis absorbance detector, Data Module 730, 3.9 mm×15 cm NOVA-PAK 4 μm silica packing steel column, C-18 Guard-Pak, Hamilton syringes of 10, 100, and 250 μl capacity (Hamilton Co., Reno, Nev.), and Milli-Q(tm) Millipore water filtration system #CDOFO 1205 (Waters, Division of Millipore, Milford, Mass.).
1--For the analysis of ASA and its metabolites in tissues: the mobile phase was 2% acetic acid/methanol, 95:5, at a flow rate of 1.4 ml/minute.
The detection wavelength was 240 nm and the sensitivity of the detector was 0.02 AUFS (Absorbance Unit Full Scale).

[3] = Tissue distribution of 14C-salicylamide (parent) by HPLC; assay type: in vivo, male Sprague-Dawley rats; settings: for concentration at 1.5 h: rat
Source text: Forty-eight rats were divided into two groups.
The rats were anesthetized by light diethyl ether inhalation.

[4] = oral 14C-ASA 10 mg/kg, alone or with SAM 3 mg/kg
[5] = rat, in vivo, po, 10 mg/kg, 72 h

## NC(=O)c1ccccc1O [SAM, Salicylamide]
[1]; ASA coadministered with SAM vs ASA alone
  Urinary SA, SUA and SA glucuronide, 0-8 hours: higher in the urine
[1]; SAM coadministered with 14C-ASA
  Effect on urinary 14C, 0-8 hour period: increased
[1]; SAM coadministered with 14C-ASA vs 14C-ASA alone
  Effect on urinary 14C, 8-28 hour period (so in the source): significantly decreased
[1]; SAM coadministration vs 14C-ASA alone
  Urinary content of SA, SUA and SA glucuronide after 0-8 hours: decreased
[1]; SAM with 14C-ASA, low doses
  Effect on pattern of excretion of ASA metabolites in urine: did not affect the pattern of excretion of ASA metabolites in urine
[2]; SAM with 14C-ASA
  Change of 14C-SA in kidney (low and high dose) and liver (high dose): not markedly altered
[3]; 1.5 hours, 14C-SAM alone and with ASA, low and high doses
  Parent SAM in plasma: not detected

## CC(=O)Oc1ccccc1[14C](=O)O [^14 C-ASA]
[1]; 14C-ASA alone or in combination with SAM
  14C radioactivity recovered in urine: Almost all the ^14 C radioactivity
[1]; 14C-ASA alone or with SAM
  SA share of the radioactivity excreted in urine: more than 50%
  SUA share of the metabolites in urine: approximately 15%
[1]; 14C-ASA or 14C-CO2
  14C in expired air: No radioactivity was found
[1]; 14C-ASA oral
  Absorption from the gut: essentially a complete absorption
[1]
  Rate order of excretion of metabolites: first-order rate pattern
[1]; [4]
  Urinary excretion of 14C, 0-72 hr: 3055 ± 23 μg ^14 C
  Urinary excretion of 14C, 8-16 hr: 619 ± 124 μg ^14 C
  Urinary excretion of 14C, 16-24 hr: 92 ± 26 μg ^14 C
  Urinary excretion of 14C, 24-48 hr: 60 ± 19 μg ^14 C
  Urinary excretion of 14C, 48-72 hr: 11 ± 3 μg ^14 C
[1]; oral 14C-ASA 10 mg/kg, alone or with SAM 3 mg/kg, mean ± SE, n=6
  Urinary excretion of 14C, 0-8 hr: 2227 ± 138 μg ^14 C
[1]; rat, in vivo, po, 10 mg/kg
  Bioavailability of 14C: 100%
[1]; [5]
  14C excreted in feces: 1.0 ± 0.1 percentage of the dose
  14C excreted in urine: 100.2 ± 0.8 percentage of the dose
  Recovery of the administered dose: 100%
  Total Recovery of 14C: 101.7 ± 0.8 percentage of the dose
[2]; 14C-ASA alone and with SAM
  SUA in lung, heart, liver and plasma: not detected; also recorded: The liver had no detectable level of SUA
[2]; low or high dose
  Difference in kidney 14C-SUA with or without SAM: no significant difference
  Gentisic acid and 2,3-dihydroxybenzoic acid in tissues: not detected

## N[14C](=O)c1ccccc1O [^14 C-SAM]
[3]; 14C-SAM 3 mg/kg with or without ASA 10 mg/kg
  14C-SAM in heart: not detected
[3]; 1.5 hours, 14C-SAM 6 mg/kg alone or 14C-SAM/ASA 6/20 mg/kg
  14C-SAM in heart: detected in the heart
[3]; heart, oral 14C-SAM 6 mg/kg, alone or with ASA 20 mg/kg, ND = not detected, read-out: 14C-salicylamide in heart
  concentration at 1.5 h: 2.9 ± 1.7 ng/g
[3]; kidney, oral 14C-SAM 3 mg/kg, alone or with ASA 10 mg/kg, read-out: 14C-salicylamide in kidney
  concentration at 1.5 h: 152 ± 13.4 ng/g
[3]; kidney, oral 14C-SAM 6 mg/kg, alone or with ASA 20 mg/kg, read-out: 14C-salicylamide in kidney
  concentration at 1.5 h: 181 ± 18.3 ng/g
[3]; liver, oral 14C-SAM 3 mg/kg, alone or with ASA 10 mg/kg, read-out: 14C-salicylamide in liver
  concentration at 1.5 h: 16.6 ± 5.3 ng/g
[3]; liver, oral 14C-SAM 6 mg/kg, alone or with ASA 20 mg/kg, read-out: 14C-salicylamide in liver
  concentration at 1.5 h: 29.4 ± 3.3 ng/g
[3]; lung, oral 14C-SAM 3 mg/kg, alone or with ASA 10 mg/kg, read-out: 14C-salicylamide in lung
  concentration at 1.5 h: 17.1 ± 3 ng/g
[3]; lung, oral 14C-SAM 6 mg/kg, alone or with ASA 20 mg/kg, read-out: 14C-salicylamide in lung
  concentration at 1.5 h: 41.9 ± 3.9 ng/g

## CC(=O)Oc1ccccc1C(=O)O [ASA, acetylsalicylic acid]
[1]
  Rate order of excretion of metabolites: first-order rate fashion
[2]
  Aspirin level in tissues studied (plasma, lung, liver, heart, kidney): not detected in the plasma
[2]; listed as aspirin
  Aspirin level in tissues studied (plasma, lung, liver, heart, kidney): not detected
[3]; low and high dose combinations
  Change of 14C-SAM in lung by ASA: significantly lower
[3]; low dose combination
  Change of 14C-SAM in kidney by ASA: significantly reduced
[3]; lower dose combination
  Increase of 14C-SAM in liver with ASA: about 50%
